Test results published in ChEMBL document CHEMBL5512671, “Structure-Based Optimization of Novel Sterol 24-C-Methyltransferase Inhibitors for the Treatment of Candida albicans Infections” (J Med Chem, 2024).
Active and inactive are the calls of the source. No cut-off for these calls is given here.

What was measured:
[1] = tested on: Candida albicans; assay: Antifungal activity against Candida albicans SC5314 assessed as inhibition of morphological transition at 0.5 ug/ml measured after 5 days cultured under YPD embedded agar medium by microscopy based analysis relative to control; type: functional; design: scale not given: the % may be the effect or the level left; conditions: dose 0.5 µg/ml; time 5 day
[2] = tested on: Candida albicans; assay: Antifungal activity against Candida albicans SC5314 assessed as inhibition of hyphae growth measured after 30 passages; type: functional, organism-based
[3] = tested on: Candida albicans; assay: Upregulation of PDE2 gene level in Candida albicans SC5314 at 1 ug/ml incubated for 6 hrs by qPCR analysis; type: functional; conditions: dose 1.0 µg/ml
[4] = tested on: Candida albicans; assay: Synergistic antifungal activity against Candida albicans SC5314 assessed as inhibition of fungal growth incubated for 24 hrs in presence of terbinafine by broth microdilution checkerboard assay; type: functional
[5] = tested on: [Candida] auris; assay: Antifungal activity against Candida auris CBS12774 assessed as inhibition of fungal growth incubated for 24 hrs by CLSI protocol based broth microdilution method; type: functional; conditions: Candidozyma auris
[6] = tested on: Candida albicans; assay: Antifungal activity against Candida albicans SC5314 assessed as inhibition of hyphae growth incubated for 24 hrs by CLSI protocol based broth microdilution method; type: functional
[7] = tested on: Candida parapsilosis; assay: Antifungal activity against Candida parapsilosis CP1 assessed as inhibition of fungal growth incubated for 24 hrs by CLSI protocol based broth microdilution method; type: functional; conditions: Lodderomyces parapsilosis
[8] = tested on: Candida albicans; assay: Downregulation of ALS3 expression in Candida albicans SC5314 at 1 ug/ml incubated for 6 hrs by qPCR analysis; type: functional; conditions: dose 1.0 µg/ml
[9] = tested on: Candida albicans; assay: Antifungal activity against Candida albicans SC5314 assessed as inhibition of hyphae growth measured after 6 hrs cultured under RPMI1640 medium/5% serum by microscopy based analysis; type: functional, organism-based; conditions: dose 0.25-1 µg/ml
[10] = tested on: Candida albicans; assay: Fungistatic activity against Candida albicans SC5314 at 1 ug/ml incubated for 3 hrs in presence of terbinafine by SYTOX staining based analysis; type: functional, organism-based; conditions: dose 1.0 µg/ml
[11] = tested on: Candida albicans; assay: Antifungal activity against Candida albicans SC5314 infected in Balb/C mouse candidiasis model assessed as appearance of inflammatory infiltrates at 0.5 % administered topically and measured after 72 hrs in presence of terbinafine by H and E staining based analysis; type: functional, organism-based
[12] = tested on: [Candida] auris; assay: Antifungal activity against Candida auris CBS12774 assessed as inhibition of hyphae formation at 1 ug/ml measured after 6 hrs by microscopy based analysis; type: functional, organism-based; conditions: Candidozyma auris, dose 1.0 µg/ml
[13] = tested on: Candida albicans; assay: Downregulation of HWP1 expression in Candida albicans SC5314 at 1 ug/ml incubated for 6 hrs by qPCR analysis; type: functional; conditions: dose 1.0 µg/ml
[14] = tested on: Candida albicans; assay: Antifungal activity against Candida albicans SC5314 infected in Balb/C mouse candidiasis model assessed as decrease in skin fungal burden by measuring fold change at 0.5 % administered topically and measured after 72 hrs in presence of terbinafine; type: functional
[15] = tested on: Candida albicans; assay: Upregulation of NRG1 expression in Candida albicans SC5314 at 1 ug/ml incubated for 6 hrs by qPCR analysis; type: functional; conditions: dose 1.0 µg/ml
[16] = molecular target: T1, Sterol 24-C-methyltransferase (Candida albicans (strain SC5314 / ATCC MYA-2876) (Yeast), UniProt O74198); assay: Inhibition of recombinant Candida albicans SC5314 Erg6 methyltransferase activity using zymosterol as substrate incubated for 15 mins followed by substrate addition by liquid scintillation counter analysis
T1 sequence (O74198 whole entry): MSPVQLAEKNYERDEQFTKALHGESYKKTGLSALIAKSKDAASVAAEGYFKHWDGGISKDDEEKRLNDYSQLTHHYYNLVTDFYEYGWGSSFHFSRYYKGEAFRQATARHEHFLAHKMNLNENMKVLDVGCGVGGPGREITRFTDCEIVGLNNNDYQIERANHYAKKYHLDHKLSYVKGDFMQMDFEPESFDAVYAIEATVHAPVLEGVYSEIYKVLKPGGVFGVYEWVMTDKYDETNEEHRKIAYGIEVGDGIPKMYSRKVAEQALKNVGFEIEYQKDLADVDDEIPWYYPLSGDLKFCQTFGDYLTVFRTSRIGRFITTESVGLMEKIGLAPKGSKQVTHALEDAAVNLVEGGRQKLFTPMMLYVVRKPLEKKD

[17] = tested on: Candida albicans; assay: Antifungal activity against Candida albicans SC5314 infected in Balb/C mouse candidiasis model assessed as filamentation defect at 0.5 % administered topically and measured after 72 hrs in presence of tridemorph by PAS staining based analysis; type: functional, organism-based
[18] = tested on: Candida albicans; assay: Inhibition of cell adhesion in Candida albicans SC5314 to human HGE cells measured after 90 mins by fluorescence microscopy based analysis; type: functional; conditions: dose 0.5-2 µg/ml
[19] = tested on: Candida albicans; assay: Antifungal activity against Candida albicans SC5314 assessed as inhibition of hyphae growth measured after 5 days cultured under YPD embedded agar medium and 10mM GlcNAc by microscopy based analysis; type: functional, organism-based; conditions: dose 0.25-1 µg/ml, time 5.0 day
[20] = tested on: Nakaseomyces glabratus; assay: Antifungal activity against Candida glabrata CG2 assessed as effect on cell structure at 1 ug/ml measured after 6 hrs by microscopy based analysis; type: functional, organism-based; conditions: dose 1.0 µg/ml
[21] = tested on: Nakaseomyces glabratus; assay: Antifungal activity against Candida glabrata CG2 assessed as inhibition of fungal growth incubated for 24 hrs by CLSI protocol based broth microdilution method; type: functional

Cc1c(-n2c(-c3ccc4ccccc4c3)cs/c2=N\c2ccccc2)c(=O)n(-c2ccccc2)n1C
Activity [1]: 100% | Activity [2]: Active | Activity [3]: Active | MIC80 [4]: 1 µg/mL | MIC [5]: > 128 µg/mL | MIC50 [6]: > 128 µg/mL | MIC [7]: > 128 µg/mL | Activity [8]: Active | Activity [9]: Dose-Dependent Effect | Activity [10]: Active | Activity [11]: inactive | Activity [12]: Active | Activity [13]: Active | fold change (FC) [14]: 59.11 | Activity [15]: Active | IC50 [16]: 273 nM | Activity [17]: Active | inhibition [18]: Dose-Dependent Effect | Activity [19]: Dose-Dependent Effect | Activity [20]: inactive | MIC [21]: > 128 µg/mL
